Laboratory results reported in patent publication US20250109127A1, “METHODS OF USE OF PHENOXYPROPYLAMINE COMPOUNDS TO TREAT DEPRESSION” (Minerva Neurosciences, Inc., priority 2013, published 2025).
Values joined by “and” are separate entries in the source; they are usually repeats but may differ in a detail not shown here. Identical values can stand only once. Counter-ions that a name gives are not always drawn.

Tested on: 5-HT release in the rat prefrontal cortex
Experiment: Microdialysis: 5-HT release in prefrontal cortex after I.P. administration
Format: in vivo
Conditions: for 5-HT (% of respective basal), individual animal: 0.1 mg/kg I.P., c2-c9 = R#13,14,20,19,25,26,31,32; for 5-HT (% of respective basal), individual animal / 5-HT release, individual animals: hydrochloride; for 5-HT release, MEAN / 5-HT release, individual animals: 0.3 mg/kg I.P.; for 5-HT release, MEAN: n = 8; for 5-HT release, individual animals: one column per animal R#11,12,18,23,29,30,17,24
Procedure: The aim of the study was to evaluate, using microdialysis, the effects of an intraperitoneal (I.P.) administration in rats of three different doses of SON-117 on dopamine and its metabolites, serotonin and its metabolite (5-HIAA), and norepinephrine levels in prefrontal cortex.
Thirty-two adult male Wistar rats were used for the whole study (4 groups of eight animals planned for the study, Table 1).
Surgery was performed on rats weighing about 300 g at the beginning of the experiments. Rats were anaesthetized with Ketamine (50 mg/kg) & Xylazine (15 mg/kg) by intramuscular administration. The animals were placed in a stereotaxic apparatus in the flat-skull position at a constant setting of −3.3 mm between ear bars and the incisor bar. The animals were treated with a local anesthesic (xylocaine 1%, Astra Zeneca) and an analgesic (Temgesic, from Schering Plough, 0.05 mg/kg, s.c.). A rostrocaudal midline incision was made with a lancet to expose the dorsal skull surface. The “stereotaxic zero” was defined by the Bregma in accordance with Paxinos and Watson's atlas (1986). A hole was drilled in the skull with a drill and the meninges were pierced with a sterile needle to implant a CMA12 guide cannula which later received the dialysis probe.
Coordinates used for implanting guide cannula in prefrontal cortex from Bregma were anteroposterior 3.7 mm, mediolateral 0.8 mm, and dorsoventral −2 mm (top of the probe was at −5 mm). The guide cannula was fixed to the skull with two stainless steel screws (1.88 mm outside diameter) anchored. An application of dental cement was added. A plastic collar allowed each animal to be tethered to a Swivel assembly of the CMA 120 awake animal system. Following surgery, rats were kept in individual cages and allowed to recover for a minimum of 3-5 days before the experimentation. The rats were handled and put in plastic bowl for 10 min at least every day to habituate the animals to their new environment for the dialysis. An I.P. administration with saline was also performed every day.
Dialysis probes (CMA12/3 mm, membrane, 20 kD cut-off, Carnegie Medicine, Stockholm, Sweden), were carefully washed before inserting into the guide cannula. The wash was performed with the artificial cerebrospinal fluid (aCSF) medium (NaCl 147 mM, KCl 2.7 mM, CaCl2 1.2 mM, MgCl2 0.85 mM) at room temperature. The dialysis system was then equilibrated at 20° C. at a perfusion rate of 1 μl/min with a Carnegie pump (CMA100). All catheters (FEP tubing, internal volume of 1.2 μl/10 cm, and tubing adaptors) used for microdialysis were treated in the same conditions.
The probes duly prepared were inserted into the guide cannula and the CMA120 Swivel assembly secured to the animal using a plastic collar. Flow through the dialysis probe with aCSF was maintained at a rate of 1 μl/min during the whole experimentation. The first four fractions (corresponding to 2 hours) were discarded to avoid the effects of parenchymal disturbance and to ensure that an approximate steady-state level was reached. Fractions were then collected over a period of 8.5 h during which time the animals remained quiet. The dialysates were automatically collected with an autosampler (microfraction collector CMA 140, Carnegie Medicin) and stored at −80° C. until analysis. […] Perfusion was then maintained for 7 hours with aCSF. The dialysates (30 μl) were collected into 300 μl vials, transferred into dry ice and then kept frozen (−80° C.) until analysis. Frozen samples were shipped to a partner for analysis. At the end of the microdialysis study, a PBS with colored ink was perfused through the probe in order to visualize the dialyzed area.
Catecholamine assay: Concentrations of dopamine, DOPAC, HVA, 5-HIAA, 5-HT, and norepinephrin were determined for each sample by HPLC coupled with electrochemical detection. […]

Cc1nnc(-c2cc3c(OC[C@@H](O)CN4CCC(c5ccc(Cl)c(Cl)c5)CC4)cccc3o2)o1 [SON-117, (S)-1-(4-(3,4-dichlorophenyl)piperidino)-3-(2-(5-methyl-1,3,4-oxadiazol-2-yl)benzo(b)furan-4-yloxy)-2-propanol hydrochloride]
5-HT (% of respective basal), individual animal (T30-T1 h): 69.00 % of respective basal and 117.47 % of respective basal and 153.30 % of respective basal and 119.68 % of respective basal and 228.97 % of respective basal and 127.98 % of respective basal and 113.81 % of respective basal and 57.12 % of respective basal
5-HT (% of respective basal), individual animal (T1 h 30-T2 h): 92.30 % of respective basal and 410.73 % of respective basal and 162.34 % of respective basal and 123.16 % of respective basal and 77.29 % of respective basal and 149.14 % of respective basal and 262.61 % of respective basal and 62.56 % of respective basal
5-HT (% of respective basal), individual animal (T1 h-T1 h 30): 84.80 % of respective basal and 173.62 % of respective basal and 140.43 % of respective basal and 113.99 % of respective basal and 98.07 % of respective basal and 572.83 % of respective basal and 162.09 % of respective basal and 62.45 % of respective basal
5-HT (% of respective basal), individual animal (T2 h 30-T3 h): 51.79 % of respective basal and 182.3 % of respective basal and 109.29 % of respective basal and 102.05 % of respective basal and 101.27 % of respective basal and 528.93 % of respective basal and 86.68 % of respective basal and 564.06 % of respective basal
5-HT (% of respective basal), individual animal (T2 h-T2 h 30): 82.11 % of respective basal and 59.17 % of respective basal and 129.41 % of respective basal and 112.33 % of respective basal and 523.12 % of respective basal and 458.59 % of respective basal and 127.80 % of respective basal and 1473.07 % of respective basal
5-HT (% of respective basal), individual animal (T3 h 30-T4 h): 74.33 % of respective basal and 66.30 % of respective basal and 153.79 % of respective basal and 155.51 % of respective basal and 132.93 % of respective basal and 131.96 % of respective basal and 93.88 % of respective basal and 405.95 % of respective basal
5-HT (% of respective basal), individual animal (T3 h-T3 h 30): 72.21 % of respective basal and 249.58 % of respective basal and 128.14 % of respective basal and 138.05 % of respective basal and 139.82 % of respective basal and 122.70 % of respective basal and 103.66 % of respective basal and 298.06 % of respective basal
5-HT (% of respective basal), individual animal (T4 h 30-T5 h): 79.25 % of respective basal and 111.21 % of respective basal and 188.06 % of respective basal and 105.16 % of respective basal and 99.59 % of respective basal and 221.4 % of respective basal and 113.08 % of respective basal and 1455.86 % of respective basal
5-HT (% of respective basal), individual animal (T4 h-T4 h 30): 10.23 % of respective basal and 242.01 % of respective basal and 138.36 % of respective basal and 81.92 % of respective basal and 75.44 % of respective basal and 312.84 % of respective basal and 89.43 % of respective basal and 1851.01 % of respective basal
5-HT (% of respective basal), individual animal (T5 h 30-T6 h): 18.22 % of respective basal and 541.94 % of respective basal and 112.81 % of respective basal and 91.86 % of respective basal and 67.97 % of respective basal and 390.29 % of respective basal and 95.06 % of respective basal and 682.45 % of respective basal
5-HT (% of respective basal), individual animal (T5 h-T5 h 30): 106.82 % of respective basal and 610.15 % of respective basal and 166.13 % of respective basal and 112.99 % of respective basal and 48.55 % of respective basal and 433.73 % of respective basal and 103.27 % of respective basal and 900.33 % of respective basal
5-HT (% of respective basal), individual animal (T6 h 30-T7 h): 76.67 % of respective basal and 764.86 % of respective basal and 75.95 % of respective basal and 109.17 % of respective basal
5-HT (% of respective basal), individual animal (T6 h-T6 h 30): 98.17 % of respective basal and 780.23 % of respective basal and 117.32 % of respective basal and 105.66 % of respective basal and 44.34 % of respective basal and 387.64 % of respective basal and 93.11 % of respective basal and 410.53 % of respective basal
5-HT release, MEAN (T0-T30 min): 119.65 % of respective basal
5-HT release, MEAN (T30-T1 h): 111.24 % of respective basal
5-HT release, individual animals (T30-T1 h): 160.62 % of respective basal and 82.62 % of respective basal and 90.53 % of respective basal and 121.61 % of respective basal and 144.48 % of respective basal and 187.01 % of respective basal and 55.67 % of respective basal and 47.37 % of respective basal
5-HT release, MEAN (T1 h 30-T2 h): 114.14 % of respective basal
5-HT release, individual animals (T1 h 30-T2 h): 181.24 % of respective basal and 97.85 % of respective basal and 76.79 % of respective basal and 83.68 % of respective basal and 125.63 % of respective basal and 123.37 % of respective basal and 24.18 % of respective basal and 200.38 % of respective basal
5-HT release, MEAN (T1 h-T1 h 30): 144.23 % of respective basal
5-HT release, individual animals (T1 h-T1 h 30): 149.89 % of respective basal and 128.02 % of respective basal and 96.66 % of respective basal and 76.75 % of respective basal and 140.12 % of respective basal and 235.56 % of respective basal and 63.72 % of respective basal and 263.12 % of respective basal
5-HT release, MEAN (T2 h 30-T3 h): 126.37 % of respective basal
5-HT release, individual animals (T2 h 30-T3 h): 96.77 % of respective basal and 104.38 % of respective basal and 101.02 % of respective basal and 167.96 % of respective basal and 125.41 % of respective basal and 206.04 % of respective basal and 42.18 % of respective basal and 167.18 % of respective basal
5-HT release, MEAN (T2 h-T2 h 30): 106.16 % of respective basal
5-HT release, individual animals (T2 h-T2 h 30): 111.34 % of respective basal and 124.56 % of respective basal and 108.53 % of respective basal and 74.72 % of respective basal and 123.51 % of respective basal and 215.61 % of respective basal and 33.60 % of respective basal and 57.37 % of respective basal
5-HT release, MEAN (T3 h 30-T4 h): 133.06 % of respective basal
